This is an account of results in patent US20090068098A1, “ANTIBODIES AND RELATED MOLECULES THAT BIND TO 58P1D12 PROTEINS” (priority 2007, published 2009).

This assay has as its system LAPC9-AI androgen-independent prostate tumor xenografts. As to the kind of experiment: Established LAPC9-AI prostate tumor xenografts in tibiae, monotherapy and combination with Carboplatin. In kind it is in vivo, mouse. To be noted: day 33, vs control antibody; MAb 2 mg loading then 1.0 mg i.p. twice weekly, 7 doses; Carboplatin 40 mg/kg i.v. days 7, 11, 15, 19, 22, 26. As for the experimental part:
FIG. 16. […] The tumors were allowed to establish for 7 days, at which time the animals were randomized and assigned to four different groups (n=10 in each group) as indicated in the graph. […] Carboplatin (40 mg/kg) was administered to the mice intravenously (i.v.) on days 7, 11, 15, 19, 22 and 26. On day 33 all mice were sacrificed and the tumors were excised and weighed on an electronic balance.
The tumors were allowed to establish for 7 days, at which time the animals were randomized and assigned to four different groups (n=10 in each group). […] Carboplatin (40 mg/kg) was administered to the mice intravenously (i.v.) on days 7, 11, 15, 19, 22 and 26. On day 33 all mice were sacrificed and the tumors were excised and weighed on an electronic balance.

For `N.N.O=C([O-])C1(C(=O)[O-])CCC1.[Pt+2]` [Carboplatin], the “inhibition of tumor growth (tumor weight)” value was determined as 87%.
